# Reference: US9273067B2, “Pyrazolopyrimidine macrocycles as inhibitors of human immunodeficiency virus replication” (BRISTOL-MYERS SQUIBB COMPANY, priority 2014, dated 2016)
# Tested on: not given
# Assay: not given
# Details: from C=CCOC1(C)CCN(c2c([C@H](OC(C)(C)C)C(=O)OCC)c(C)nc3cc(CNC(=O)C(=O)N(CC=C)Cc4ccc(F)c(C)c4)nn23)CC1; rcm bond; 18-membered ring; Hoveyda-Grubbs II (5 mol%); then NaOH; 1,2-dichloroethane; 4.03 mM; 70.0 °C; 2.0 h; 2 steps
row,Molecule,"ring closure, yield after HPLC [%]"
1,CCOC(=O)[C@@H](OC(C)(C)C)c1c(C)nc2cc3nn2c1N1CCC(C)(CC1)OCC=CCN(Cc1ccc(F)c(C)c1)C(=O)C(=O)NC3,63.3

# Same assay, conditions: from C=CCOC1(C)CCN(c2c([C@H](OC(C)(C)C)C(=O)OCC)c(C)nc3cc(CNC(=O)c4ccccc4CC=C)nn23)CC1; rcm bond; 18-membered ring; Hoveyda-Grubbs II (5 mol%); then NaOH; 1,2-dichloroethane; 4.7 mM; 70.0 °C; 2.0 h; 2 steps
row,Molecule,"ring closure, yield after HPLC [%]"
1,CCOC(=O)[C@@H](OC(C)(C)C)c1c(C)nc2cc3nn2c1N1CCC(C)(CC1)OCC=CCc1ccccc1C(=O)NC3,71.1

# Tested on: NL-RLuc virus (recombinant HIV NL4-3 with Renilla Luciferase) in MT-2 cells
# Assay: Inhibition of HIV replication (NL-RLuc virus in MT-2 cells, luciferase readout)
# Format: cell-based, human immunodeficiency virus (HIV)
# Details: MT2, 120 h, NL-RLuc virus infecting MT-2 cells, 5 days of incubation, 10% FBS, luciferase quantitation; at least 2 experiments
# Summary of the method: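 NL4-3 carrying Renilla luciferase in place of part of nef, produced in 293T cells, was used to infect MT-2 cells in RPMI 1640/10% FBS with serial compound dilutions. After 5 days, virus growth was read by luciferase. EC50 came from the median effect equation over at least 2 experiments.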
row,Molecule,EC50 [nM]
1,"Cc1nc2cc3nn2c(c1[C@H](OC(C)(C)C)C(=O)O)N1CCC(C)(CC1)OCCCC[C@H](C)Oc1cc2ccccc2cc1COC3 [Example 53, (2S)-2-(tert-butoxy)-2-[(24S)-4,24,30-trimethyl-11,23,29-trioxa-1,5,7,8-tetraazahexacyclo[28.2.2.1^6,^9.0^2,^7.0^13,^22.0^15,^20]pentatriaconta-2,4,6(35),8,13,15,17,19,21-nonaen-3-yl]acetic acid]",2
2,"Cc1nc2cc3nn2c(c1[C@H](OC(C)(C)C)C(=O)O)N1CCC(C)(CC1)OCCCCC(C(F)(F)F)Oc1cc(F)ccc1COC3 (stereo partly drawn) [Example 54, (2S)-2-(tert-butoxy)-2-[16-fluoro-4,26-dimethyl-20-(trifluoromethyl)-11,19,25-trioxa-1,5,7,8-tetraazapentacyclo[24.2.2.1^6,^9.0^2,^7.0^13,^18]hentriaconta-2,4,6(31),8,13,15,17-heptaen-3-yl]acetic acid]",7
3,"Cc1nc2cc3nn2c(c1[C@H](OC(C)(C)C)C(=O)O)N1CCC(C)(CC1)OCCCCCc1ccccc1COC3 [Example 57, (2S)-2-(tert-Butoxy)-2-{4,25-dimethyl-11,24-dioxa-1,5,7,8-tetraazapentacyclo[23.2.2.1^6,^9.0^2,^7.0^13,^18]triaconta-2,4,6(30),8,13(18),14,16-heptaen-3-yl}acetic acid]",34
4,"Cc1nc2cc3nn2c(c1[C@H](OC(C)(C)C)C(=O)O)N1CCC(C)(CC1)OCCCCCCc1ccccc1COC3 [Example 58, (2S)-2-(tert-Butoxy)-2-{4,26-dimethyl-11,25-dioxa-1,5,7,8-tetraazapentacyclo[24.2.2.1^6,^9.0^2,^7.0^13,^18]hentriaconta-2,4,6(31),8,13(18),14,16-heptaen-3-yl}acetic acid]",62
5,"Cc1nc2cc3nn2c(c1[C@H](OC(C)(C)C)C(=O)O)N1CCC(C)(CC1)OCCCCCc1cccc(c1)COC3 [Example 59, (2S)-2-(tert-Butoxy)-2-{4,24-dimethyl-11,23-dioxa-1,5,7,8-tetraazapentacyclo[22.2.2.1^6,^9.1^13,^17.0^2,^7]triaconta-2,4,6(30),8,13(29),14,16-heptaen-3-yl}acetic acid]",16
6,"Cc1nc2cc3nn2c(c1[C@H](OC(C)(C)C)C(=O)O)N1CCC(C)(CC1)OCCCCCc1cc(F)ccc1COC3 [Example 60, (2S)-2-(tert-Butoxy)-2-{16-fluoro-4,25-dimethyl-1,24-dioxa-1,5,7,8-tetraazapentacyclo[23.2.2.1^6,^9.0^2,^7.0^13,^18]triaconta-2,4,6(30),8,13(18),14,16-heptaen-3-yl}acetic acid]",13
7,"Cc1nc2cc3nn2c(c1[C@H](OC(C)(C)C)C(=O)O)N1CCC(C)(CC1)OCCCC[C@H](C)Oc1c(ccc2ccccc12)COC3 [Example 61, (2S)-2-(tert-butoxy)-2-[(24S)-4,24,30-trimethyl-11,23,29-trioxa-1,5,7,8-tetraazahexacyclo[28.2.2.1^6,^9.0^2,^7.0^13,^22.0^16,^21]pentatriaconta-2,4,6(35),8,13(22),14,16(21),17,19-nonaen-3-yl]acetic acid]",5
8,"Cc1nc2cc3nn2c(c1[C@H](OC(C)(C)C)C(=O)O)N1CCC(C)(CC1)OCCCCCc1cc(F)ccc1CN(C1CC1)C3 [Example 62, (2S)-2-(tert-Butoxy)-2-{11-cyclopropyl-16-fluoro-4,25-dimethyl-24-oxa-1,5,7,8,11-pentaazapentacyclo[23.2.2.1^6,^9.0^2,^7.0^13,^18]triaconta-2,4,6(30),8,13(18),14,16-heptaen-3-yl}acetic acid]",41
9,"Cc1nc2cc3nn2c(c1[C@H](OC(C)(C)C)C(=O)O)N1CCC(C)(CC1)OCCCCc1cccc(c1)COC3 [Example 63, (2S)-2-(tert-Butoxy)-2-{4,23-dimethyl-11,22-dioxa-1,5,7,8-tetraazapentacyclo[21.2.2.1^6,^9.1^13,^17.0^2,^7]nonacosa-2,4,6(29),8,13(28),14,16-heptaen-3-yl}acetic acid]",16
10,"Cc1ccc2c(c1)O[C@@H](C)CCCCOC1(C)CCN(CC1)c1c([C@H](OC(C)(C)C)C(=O)O)c(C)nc3cc(nn13)CN(C1CC1)C2 [Example 64, (2S)-2-(tert-Butoxy)-2-[(20S)-11-cyclopropyl-4,16,20,26-tetramethyl-19,25-dioxa-1,5,7,8,11-pentaazapentacyclo[24.2.2.1^6,^9.0^2,^7.0^13,^18]hentriaconta-2,4,6(31),8,13(18),14,16-heptaen-3-yl]acetic acid]",12
11,"Cc1ccc2c(c1)CCCCOC1(C)CCN(CC1)c1c([C@H](OC(C)(C)C)C(=O)O)c(C)nc3cc(nn13)COC2 [Example 65, (2S)-2-(tert-Butoxy)-2-{4,16,24-trimethyl-11,23-dioxa-1,5,7,8-tetraazapentacyclo[22.2.2.1^6,^9.0^2,^7.0^13,^18]nonacosa-2,4,6(29),8,13(18),14,16-heptaen-3-yl}acetic acid]",2
12,"Cc1nc2cc3nn2c(c1[C@H](OC(C)(C)C)C(=O)O)N1CCC(C)(CC1)OCCCCc1cc(F)ccc1COC3 [Example 66, (2S)-2-(tert-Butoxy)-2-{16-fluoro-4,24-dimethyl-11,23-dioxa-1,5,7,8-tetraazapentacyclo[22.2.2.1^6,^9.0^2,^7.0^13,^18]nonacosa-2,4,6(29),8,13(18),14,16-heptaen-3-yl}acetic acid]",4
13,"Cc1nc2cc3nn2c(c1[C@H](OC(C)(C)C)C(=O)O)N1CCC(C)(CC1)OCCCc1cc(F)ccc1COC3 [Example 67, (2S)-2-(tert-Butoxy)-2-{16-fluoro-4,23-dimethyl-11,22-dioxa-1,5,7,8tetraazapentacyclo[21.2.2.1^6,^9.0^2,^7.0^13,^18]octacosa-2,4,6(28),8,13(18),14,16-heptaen-3-yl}acetic acid]",5
14,"Cc1nc2cc3nn2c(c1[C@H](OC(C)(C)C)C(=O)O)N1CCC(C)(CC1)OCCCCc1cc(F)c(F)cc1COC3 [Example 68, (2S)-2-(tert-Butoxy)-2-{15,16-difluoro-4,24-dimethyl-11,23-dioxa-1,5,7,8-tetraazapentacyclo[22.2.2.1^6,^9.0^2,^7.0^13,^18]nonacosa-2,4,6(29),8,13(18),14,16-heptaen-3-yl}acetic acid]",1
15,"Cc1cc2c(cc1Cl)COCc1cc3nc(C)c([C@H](OC(C)(C)C)C(=O)O)c(n3n1)N1CCC(C)(CC1)OCCCC[C@H](C)O2 [Example 69, (2S)-2-(tert-Butoxy)-2-[(20S)-15-chloro-4,16,20,26-tetramethyl-11,19,25-trioxa-1,5,7,8-tetraazapentacyclo[24.2.2.1^6,^9.0^2,^7.0^13,^18]hentriaconta-2,4,6(31),8,13,15,17-heptaen-3-yl]acetic acid]",12
16,"Cc1cc2c(cc1Cl)COCc1cc3nc(C)c([C@H](OC(C)(C)C)C(=O)O)c(n3n1)N1CCC(C)(CC1)OCCCCC[C@H](C)O2 [Example 70, (2S)-2-(tert-Butoxy)-2-[(20S)-15-chloro-4,16,20,27-tetramethyl-11,19,26-trioxa-1,5,7,8-tetraazapentacyclo[25.2.2.1^6,^9.0^2,^7.0^13,^18]dotriaconta-2,4,6(32),8,13,15,17-heptaen-3-yl]acetic acid]",43

# Same assay, conditions: NL-RLuc virus infecting MT-2 cells, 5 days of incubation, 10% FBS, luciferase quantitation; at least 2 experiments; read-out: EC50
row,Molecule,EC50 [nM]
1,"(2S)-2-(tert-Butoxy)-2-[4,22-dimethyl-15-(propan-2-yl)-16,21-dioxa-1,5,7,8,11,12,13-heptaazapentacyclo[20.2.2.1^6,^9.1^11,^14.0^2,^7]octacosa-2,4,6(28),8,12,14(27),19-heptaen-3-yl]acetic acid [Example 9]",93

# Same assay, conditions: {}
row,Molecule,EC50 [nM]
1,"CCCC1CCCCOC2(C)CCN(CC2)c2c([C@H](OC(C)(C)C)C(=O)O)c(C)nc3cc(nn23)COCc2cc(F)ccc2O1 (stereo partly drawn) [Example 50, (2S)-2-(tert-butoxy)-2-{15-fluoro-4,26-dimethyl-20-propyl-11,19,25-trioxa-1,5,7,8-tetraazapentacyclo[24.2.2.1^6,^9.0^2,^7.0^13,^18]hentriaconta-2,4,6(31),8,13(18),14,16-heptaen-3-yl}acetic acid]",19
2,"Cc1nc2cc3nn2c(c1[C@H](OC(C)(C)C)C(=O)O)N1CCC(C)(CC1)OCCCCC(c1ccccc1)Oc1ccc(F)cc1COC3 (stereo partly drawn) [Example 51, (2S)-2-(tert-butoxy)-2-{15-fluoro-4,26-dimethyl-20-phenyl-11,19,25-trioxa-1,5,7,8-tetraazapentacyclo[24.2.2.1^6,^9.0^2,^7.0^13,^18]hentriaconta-2,4,6(31),8,13(18),14,16-heptaen-3-yl}acetic acid]",18
3,"Cc1nc2cc3nn2c(c1[C@H](OC(C)(C)C)C(=O)O)N1CCC(C)(CC1)OCCCCC(c1ccccc1)Oc1ccc(F)cc1COC3 (stereo partly drawn) [Example 52, (2S)-2-(tert-butoxy)-2-{15-fluoro-4,26-dimethyl-20-phenyl-11,19,25-trioxa-1,5,7,8-tetraazapentacyclo[24.2.2.1^6,^9.0^2,^7.0^13,^18]hentriaconta-2,4,6(31),8,13(18),14,16-heptaen-3-yl}acetic acid]",60
